Laboratory results taken from patent publication US10590132B2, “Selective estrogen receptor down-regulators” (AstraZeneca AB, priority 2017, dated 2020).

Test: Human plasma protein binding (equilibrium dialysis)
Type: in vitro ADME
Conditions: dialysis 18 hours

| Human plasma protein binding (% free) | Compound |
| --- | --- |
| 2.3 % free | C[C@@H]1Cc2c([nH]c3ccccc23)[C@@H](c2c(F)ccc(OCCNCCCF)c2F)N1CC(F)F [Example 51, N-(2-(3-((1R,3R)-2-(2,2-difluoroethyl)-3-methyl-2,3,4,9-tetrahydro-1H-pyrido[3,4-b]indol-1-yl)-2,4-difluorophenoxy)ethyl)-3-fluoropropan-1-amine] |
| 2.1 % free | Cc1c(N(C)CCNCCCF)ccc(F)c1[C@@H]1c2[nH]c3ccccc3c2C[C@@H](C)N1C[C@H](C)C(=O)O [Example 136, (S)-3-((1R,3R)-1-(6-fluoro-3-((2-((3-fluoropropyl)amino)ethyl)(methyl)amino)-2-methylphenyl)-3-methyl-1,3,4,9-tetrahydro-2H-pyrido[3,4-b]indol-2-yl)-2-methylpropanoic acid] |
| 0.58 % free | C[C@@H]1Cc2c([nH]c3ccccc23)[C@@H](c2c(F)ccc(NCCNCCCF)c2F)N1CC(F)(F)F [Example 88, N1-(2,4-difluoro-3-((1R,3R)-3-methyl-2-(2,2,2-trifluoroethyl)-2,3,4,9-tetrahydro-1H-pyrido[3,4-b]indol-1-yl)phenyl)-N2-(3-fluoropropyl)ethane-1,2-diamine] |
| 8.4 % free | Cc1c(OCCNCCCF)ccc(F)c1[C@@H]1c2[nH]c3ccccc3c2C[C@@H](C)N1CC(F)(F)C(=O)O [Example 118, 2,2-difluoro-3-((1R,3R)-1-(6-fluoro-3-(2-((3-fluoropropyl)amino)ethoxy)-2-methylphenyl)-3-methyl-1,3,4,9-tetrahydro-2H-pyrido[3,4-b]indol-2-yl)propanoic acid] |
| 1.6 % free | Cc1c(OCCNCCCF)ccc(F)c1[C@@H]1c2[nH]c3ccccc3c2C[C@@H](C)N1CCC#N [Example 87, 3-((1R,3R)-1-(6-fluoro-3-(2-((3-fluoropropyl)amino)ethoxy)-2-methylphenyl)-3-methyl-1,3,4,9-tetrahydro-2H-pyrido[3,4-b]indol-2-yl)propanenitrile] |
| <0.4 % free | Cc1ccc(OCCNCCCF)c(C)c1[C@@H]1c2[nH]c3ccccc3c2C[C@@H](C)N1CC(F)(F)F [Example 79, N-(2-(2,4-dimethyl-3-((1R,3R)-3-methyl-2-(2,2,2-trifluoroethyl)-2,3,4,9-tetrahydro-1H-pyrido[3,4-b]indol-1-yl)phenoxy)ethyl)-3-fluoropropan-1-amine] |
| 7.1 % free | Cc1c(OCCNCCCF)ccnc1[C@@H]1c2[nH]c3ccccc3c2C[C@@H](C)N1CC(F)(F)CO [Example 96, 2,2-difluoro-3-((1S,3R)-1-(4-(2-((3-fluoropropyl)amino)ethoxy)-3-methylpyridin-2-yl)-3-methyl-1,3,4,9-tetrahydro-2H-pyrido[3,4-b]indol-2-yl)propan-1-ol] |
| 6 % free | COc1ccc(OCCNCCCF)c(F)c1[C@@H]1c2[nH]c3ccccc3c2C[C@@H](C)N1CC1(F)COC1 [Example 84, 3-fluoro-N-(2-(2-fluoro-3-((1R,3R)-2-((3-fluorooxetan-3-yl)methyl)-3-methyl-2,3,4,9-tetrahydro-1H-pyrido[3,4-b]indol-1-yl)-4-methoxyphenoxy)ethyl)propan-1-amine] |

The remaining lines, values behind:

| Compound | Human plasma protein binding (% free) |
| --- | --- |
| COc1nnc(OCCNCCCF)cc1[C@@H]1c2[nH]c3ccccc3c2C[C@@H](C)N1CC(F)(F)F [Example 112, 3-fluoro-N-(2-((6-methoxy-5-((1R,3R)-3-methyl-2-(2,2,2-trifluoroethyl)-2,3,4,9-tetrahydro-1H-pyrido[3,4-b]indol-1-yl)pyridazin-3-yl)oxy)ethyl)propan-1-amine] | 1.5 % free |
| C[C@@H]1Cc2c([nH]c3ccccc23)[C@@H](c2cc(OCCNCCCF)cc(F)c2F)N1CC(F)(F)F [Example 30, N-(2-(3,4-difluoro-5-((1R,3R)-3-methyl-2-(2,2,2-trifluoroethyl)-2,3,4,9-tetrahydro-1H-pyrido[3,4-b]indol-1-yl)phenoxy)ethyl)-3-fluoropropan-1-amine] | 0.72 % free |
| CCc1ccc(OCCNCCCF)cc1[C@@H]1c2[nH]c3ccccc3c2C[C@@H](C)N1CC(F)(F)F [Example 21, N-(2-(4-ethyl-3-((1R,3R)-3-methyl-2-(2,2,2-trifluoroethyl)-2,3,4,9-tetrahydro-1H-pyrido[3,4-b]indol-1-yl)phenoxy)ethyl)-3-fluoropropan-1-amine] | 0.10 % free |
| COc1c(F)cc(OCCNCCCF)c(F)c1[C@@H]1c2[nH]c3ccccc3c2C[C@@H](C)N1CC(F)(F)F [Example 29, N-(2-(2,5-difluoro-4-methoxy-3-((1R,3R)-3-methyl-2-(2,2,2-trifluoroethyl)-2,3,4,9-tetrahydro-1H-pyrido[3,4-b]indol-1-yl)phenoxy)ethyl)-3-fluoropropan-1-amine] | <3.2 % free |
| C[C@@H]1Cc2c([nH]c3ccccc23)[C@@H](c2nccc(OCCNCCCF)c2F)N1CC(F)(F)CO [Example 97, 2,2-difluoro-3-((1S,3R)-1-(3-fluoro-4-(2-((3-fluoropropyl)amino)ethoxy)pyridin-2-yl)-3-methyl-1,3,4,9-tetrahydro-2H-pyrido[3,4-b]indol-2-yl)propan-1-ol] | 6.8 % free |
| C[C@@H]1Cc2c([nH]c3ccccc23)[C@@H](c2ccnc(OCCNCCCF)c2)N1CC(F)(F)F [Example 102, 3-fluoro-N-(2-((4-((1R,3R)-3-methyl-2-(2,2,2-trifluoroethyl)-2,3,4,9-tetrahydro-1H-pyrido[3,4-b]indol-1-yl)pyridin-2-yl)oxy)ethyl)propan-1-amine] | 1.4 % free |
| COc1cc(F)c(NCCNCCCF)cc1[C@@H]1c2[nH]c3ccccc3c2C[C@@H](C)N1CC(F)(F)F [Example 91, N1-(2-fluoro-4-methoxy-5-((1R,3R)-3-methyl-2-(2,2,2-trifluoroethyl)-2,3,4,9-tetrahydro-1H-pyrido[3,4-b]indol-1-yl)phenyl)-N2-(3-fluoropropyl)ethane-1,2-diamine] | 0.93 % free |
| COc1ccc(OCCNCCCF)cc1[C@@H]1c2[nH]c3ccc(F)cc3c2C[C@@H](C)N1CC(F)(F)CO [Example 46, 2,2-difluoro-3-((1R,3R)-6-fluoro-1-(5-(2-((3-fluoropropyl)amino)ethoxy)-2-methoxyphenyl)-3-methyl-1,3,4,9-tetrahydro-2H-pyrido[3,4-b]indol-2-yl)propan-1-ol] | 2.4 % free |
| C[C@@H]1Cc2c([nH]c3ccccc23)[C@@H](c2cc(OCCNCCCF)ccc2C#N)N1CC(F)(F)F [Example 23, 4-(2-((3-fluoropropyl)amino)ethoxy)-2-((1R,3R)-3-methyl-2-(2,2,2-trifluoroethyl)-2,3,4,9-tetrahydro-1H-pyrido[3,4-b]indol-1-yl)benzonitrile] | 3.7 % free |
| Cc1ccc2[nH]c3c(c2c1)C[C@@H](C)N(CC(F)(F)CO)[C@@H]3c1c(F)cnc(OCCNCCCF)c1F [Example 66, 3-((1R,3R)-1-(3,5-difluoro-2-(2-((3-fluoropropyl)amino)ethoxy)pyridin-4-yl)-3,6-dimethyl-1,3,4,9-tetrahydro-2H-pyrido[3,4-b]indol-2-yl)-2,2-difluoropropan-1-ol] | 1.3 % free |
